Results reported in patent US20130078351A1, “COMPOUNDS AND METHODS FOR ENHANCING SALTY TASTE” (Monell Chemical Senses Center, priority 2010, published 2013).

Assays:
[1] = target: T1, Epithelial Sodium Channel (ENaC) subunits delta/beta/gamma (Homo sapiens, UniProt P51168+P51170+P51172); assay: Testing in Xenopus oocytes expressing ENaC (inward sodium current recording); assay type: cell-based; conditions: oocyte expressing delta
T1 construct: expressed in transfected cells; host or cells: Xenopus laevis oocytes injected with cRNA
T1 sequence (P51172 1-802): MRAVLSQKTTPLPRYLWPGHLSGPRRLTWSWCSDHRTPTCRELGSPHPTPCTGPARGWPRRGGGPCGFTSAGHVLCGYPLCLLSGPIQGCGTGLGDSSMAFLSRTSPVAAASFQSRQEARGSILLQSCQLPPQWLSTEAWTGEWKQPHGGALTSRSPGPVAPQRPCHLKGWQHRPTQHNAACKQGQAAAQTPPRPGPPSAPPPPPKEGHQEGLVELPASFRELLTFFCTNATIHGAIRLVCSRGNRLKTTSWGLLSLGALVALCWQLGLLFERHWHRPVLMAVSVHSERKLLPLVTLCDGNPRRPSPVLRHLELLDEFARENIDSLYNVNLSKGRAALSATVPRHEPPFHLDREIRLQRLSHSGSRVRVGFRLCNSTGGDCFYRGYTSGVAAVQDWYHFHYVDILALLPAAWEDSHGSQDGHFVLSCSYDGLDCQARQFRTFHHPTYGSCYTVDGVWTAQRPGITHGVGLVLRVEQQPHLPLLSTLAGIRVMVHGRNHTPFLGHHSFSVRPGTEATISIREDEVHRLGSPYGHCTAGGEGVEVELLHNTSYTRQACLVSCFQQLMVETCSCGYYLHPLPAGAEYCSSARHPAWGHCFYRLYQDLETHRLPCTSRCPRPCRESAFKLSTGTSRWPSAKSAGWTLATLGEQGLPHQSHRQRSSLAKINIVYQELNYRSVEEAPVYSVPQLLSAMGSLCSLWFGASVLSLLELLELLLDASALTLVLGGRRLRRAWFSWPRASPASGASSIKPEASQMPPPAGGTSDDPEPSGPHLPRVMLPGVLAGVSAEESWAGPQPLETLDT
T1 sequence (P51168 1-640): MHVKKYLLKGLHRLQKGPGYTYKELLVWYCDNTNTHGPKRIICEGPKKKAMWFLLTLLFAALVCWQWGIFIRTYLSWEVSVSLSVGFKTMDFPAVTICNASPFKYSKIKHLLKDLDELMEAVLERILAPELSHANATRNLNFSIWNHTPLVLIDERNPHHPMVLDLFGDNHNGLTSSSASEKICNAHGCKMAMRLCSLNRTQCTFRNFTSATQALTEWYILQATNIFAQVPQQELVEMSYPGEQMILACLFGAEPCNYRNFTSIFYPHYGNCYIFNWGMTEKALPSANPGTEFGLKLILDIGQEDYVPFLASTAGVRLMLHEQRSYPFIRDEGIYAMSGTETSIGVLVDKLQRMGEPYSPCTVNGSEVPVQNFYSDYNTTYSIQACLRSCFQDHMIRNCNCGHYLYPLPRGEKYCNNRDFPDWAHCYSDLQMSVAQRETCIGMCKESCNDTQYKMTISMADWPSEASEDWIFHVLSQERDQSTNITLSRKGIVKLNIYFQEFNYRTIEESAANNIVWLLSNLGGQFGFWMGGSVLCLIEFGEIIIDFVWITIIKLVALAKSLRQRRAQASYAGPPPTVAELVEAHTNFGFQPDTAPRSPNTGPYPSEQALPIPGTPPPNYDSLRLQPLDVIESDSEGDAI
T1 sequence (P51170 1-649): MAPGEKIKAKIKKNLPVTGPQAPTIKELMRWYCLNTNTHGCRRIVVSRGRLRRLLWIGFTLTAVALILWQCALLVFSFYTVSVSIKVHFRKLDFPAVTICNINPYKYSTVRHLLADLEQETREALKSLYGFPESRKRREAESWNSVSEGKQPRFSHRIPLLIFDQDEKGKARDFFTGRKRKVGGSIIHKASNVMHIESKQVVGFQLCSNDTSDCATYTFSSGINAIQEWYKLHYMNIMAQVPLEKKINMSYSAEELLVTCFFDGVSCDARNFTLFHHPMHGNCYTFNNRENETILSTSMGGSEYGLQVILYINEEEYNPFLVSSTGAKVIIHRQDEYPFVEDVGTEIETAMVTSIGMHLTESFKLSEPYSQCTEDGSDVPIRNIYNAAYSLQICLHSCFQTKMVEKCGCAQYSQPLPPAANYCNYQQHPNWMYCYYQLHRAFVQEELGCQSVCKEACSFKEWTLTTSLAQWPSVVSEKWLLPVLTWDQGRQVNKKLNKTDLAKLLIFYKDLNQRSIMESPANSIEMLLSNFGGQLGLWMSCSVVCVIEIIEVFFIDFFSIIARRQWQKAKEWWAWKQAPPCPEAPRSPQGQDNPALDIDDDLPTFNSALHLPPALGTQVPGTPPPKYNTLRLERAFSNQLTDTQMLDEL
Experimental: The frog, Xenopus laevis, produces oocytes that are particularly obliging in permitting a foreign gene to be incorporated into its protein translation system. The egg then makes this foreign protein encoded by the injected complimentary RNA (cRNA). Oocytes are harvested when at stage 5 or 6, from female Xenopus and defolliculated (using trypsin) and placed in low sodium culture medium. After overnight culture the egg is injected with the cRNA of the protein(s) of interest.
There is evidence that one of the major “receptors” of salty taste is the ENaC. This channel functions as a heterotrimer, a complex of three different peptides. The transfected eggs are then cultured for 4 to 6 days. Depending upon the endpoint of the study, all three subunits are expressed into one cell or one subunit is expressed per cell. The internal machinery of the cell places the ENaC into the plasma membrane. These preparations can be used as follows: • 1. Two Electrode Voltage Clamp (TEVC) across the entire oocyte is the most direct method for detecting ion flux through the ENaC, but it will respond to any ion movement, making it less desirable for precise analyses, but very useful as an initial screen. • 2. Patch clamp is used to record movement of very few ions through very few channels. […]

human taste = assay: Psychophysical assessment of salty taste enhancing properties; assay type: in vivo
Experimental: 121 subjects participated in this study. They were familiar with the taste of the 5 modalities (sweet, bitter, umami, sour, and salty), and the use of a modality—specific task. Each subject was presented with 5 cups, each having 10 ml of fluid, plus a large amount of water as a rinse before and in between each sampling. Subjects were told to hold the sample in their mouth for several seconds before making a judgment. Subjects sampled and rated all five solutions, then repeated the study. Subjects rated intensity and modality. The samples tested were • 1. 50 mM NaCl • 2. 75 mM NaCl • 3. N-(2-hydroxyethyl)-4-methylpentanamide at 20 ppm • 4. 50mM NaCl plus 20 ppm N-(2-hydroxyethyl)-4-methylpentanamide • 5. 75 mM NaCl plus 20 ppm N-(2-hydroxyethyl)-4-methylpentanamide
The results of this study are depicted in FIG. 1. The X-axis of FIG. 1 provides the identity of the five solutions that were rated and the Y-axis provides the Geometric Mean saltiness intensity ratings. Error bars are Geometric Standard Errors. […] It was slightly bitter tasting with an average bitterness intensity of 3 (data not shown). N-(2-hydroxyethyl)-4-methylpentanamide enhanced the saltiness of 50 mM NaCl by more than 100% and the saltiness of 75 mM NaCl by approximately 35%. Consistency among subjects was high as indicated by the error bars.

CC(C)CCC(=O)NCCO [N-(2-hydroxyethyl)-4-methylpentanamide]
reversibility of inward current [1]: completely reversible
effect on sodium currents (inward current) in oocytes ([1]; successive addition of increasing (nanomolar) concentrations, from baseline state): enhancement of sodium currents
enhancement of saltiness of 50 mM NaCl (human taste; 50 mM NaCl plus 20 ppm compound, geometric mean saltiness intensity ratings): more than 100%
enhancement of saltiness of 75 mM NaCl (human taste; 75 mM NaCl plus 20 ppm compound, geometric mean saltiness intensity ratings): approximately 35%
saltiness of its own (saltiness intensity rating) (human taste; compound alone at 20 ppm, 121 subjects): almost no saltiness of its own
average bitterness intensity (human taste; compound alone at 20 ppm, data not shown): 3
